Like-named read-outs stand apart in the source and are kept apart here.
Target: T1, recombinant DDB1-CRBN (Homo sapiens, UniProt Q96SW2)
T1 construct: His; made in house; host or cells: High Five insect cells (baculovirus made and propagated in SF9 cells)
Experiment: Fluorescence polarization-based competition assay for CRBN binding
Description: Prior to screening the compound library in the isogenic CPA, we assessed their CRBN binding affinities using a fluorescence-polarization-based competition assay with recombinant DDB1-CRBN and the fluorescent tracer 16 (Figure S2). […] We also assessed the cytotoxicity of the CRBN binders in RKO wild-type (WT) cells to determine the appropriate treatment concentration. […]
Fluorescence Polarization‐based competition assay
Fluorescence Polarization assays were performed in 384‐well, Low Volume, Black, Round Bottom, Polystyrene Nonbinding surface Microplates (Corning, #4514). The test compounds were incubated with 200 nM CRBN‐DDB1 and 20 nM Pomalidomide‐fluorescein tracer 16 in 50 mM Tris‐HCl pH 7.5, 200 mM NaCl, 1 mM DTT, 0.02% Triton X‐ 100, and 0.1 µg/µL Bovine Serum Albumin (Sigma Aldrich, #A7030) in a total volume of 25 µL. Fluorescence polarization values were determined with a PerkinElmer Envision reader with FITC FP dual mirror and FITC FP 480 excitation filter and FITC FP 535 emission filters. Fluorescence polarization values of a 10x serial dilution (10 nM to 100 µM) of the test compounds were determined in triplicates. EC50 values were calculated with GraphPad Prism software (version 10.0.2) with a non‐linear fit function (4PL sigmoidal curve fit) adjusting the bottom constrain to the FP value of free tracer. […]

[1] = 200 nM CRBN-DDB1, 20 nM pomalidomide-fluorescein tracer 16, triplicates, read-out: FP_CRBN_binding: CRBN binding affinity, EC50

Row | Structure (SMILES) | EC50 [1] [nM] | EC50 [nM]
1 | CC1(C)CN(S(=O)(=O)Oc2ccc(Nc3cccc4c3C(=O)N(C3CCC(=O)NC3=O)C4=O)cc2)CC2(CCOC2)O1 (stereo not shown) [FL4-8] | 1960 | –
2 | O=C1CCC(N2C(=O)c3cccc(Nc4ccc(OS(=O)(=O)N5CC6(CNC(=O)N6)C5)cc4)c3C2=O)C(=O)N1 (stereo not shown) [FL4-9] | 445 | –
3 | O=C1CCC(N2C(=O)c3cccc(Nc4ccc(OS(=O)(=O)N5C[C@@H](F)[C@H](F)C5)cc4)c3C2=O)C(=O)N1 (stereo partly shown) [FL4-10] | 830 | –
4 | CN(Cc1ncnn1C)S(=O)(=O)Oc1ccc(Nc2cccc3c2C(=O)N(C2CCC(=O)NC2=O)C3=O)cc1 (stereo not shown) [FL4-11] | 538 | –
5 | O=C1CCC(N2C(=O)c3cccc(Nc4ccc(OS(=O)(=O)N5CCC(c6ccco6)C5)cc4)c3C2=O)C(=O)N1 (stereo not shown) [FL4-12] | 4560 | –
6 | Cc1cn2c(n1)CN(S(=O)(=O)Oc1ccc(Nc3cccc4c3C(=O)N(C3CCC(=O)NC3=O)C4=O)cc1)CC2 (stereo not shown) [FL4-13] | 463 | –
7 | CN(Cc1ncc(C2CC2)o1)S(=O)(=O)Oc1ccc(Nc2cccc3c2C(=O)N(C2CCC(=O)NC2=O)C3=O)cc1 (stereo not shown) [FL4-14] | 996 | –
8 | CN(Cc1ccc2[nH]nnc2c1)S(=O)(=O)Oc1ccc(Nc2cccc3c2C(=O)N(C2CCC(=O)NC2=O)C3=O)cc1 (stereo not shown) [FL4-15] | 2130 | –
9 | O=C1CCC(N2C(=O)c3cccc(Nc4ccc(OS(=O)(=O)N5CCC(c6ccncc6)CC5)cc4)c3C2=O)C(=O)N1 (stereo not shown) [FL4-16] | 971 | –
10 | CC1c2cc(F)ccc2CCN1S(=O)(=O)Oc1ccc(Nc2cccc3c2C(=O)N(C2CCC(=O)NC2=O)C3=O)cc1 (stereo not shown) [FL4-17] | 983 | –
11 | CN(C)c1ncc(CN(C)S(=O)(=O)Oc2ccc(Nc3cccc4c3C(=O)N(C3CCC(=O)NC3=O)C4=O)cc2)cn1 (stereo not shown) [FL4-18] | 1610 | –
12 | CC1c2cccn2CCN1S(=O)(=O)Oc1ccc(Nc2cccc3c2C(=O)N(C2CCC(=O)NC2=O)C3=O)cc1 (stereo not shown) [FL4-19] | 687 | –
13 | CN(Cc1ccc2c(c1)OCO2)S(=O)(=O)Oc1ccc(Nc2cccc3c2C(=O)N(C2CCC(=O)NC2=O)C3=O)cc1 (stereo not shown) [FL4-20] | 1720 | –
14 | CN(C1CC1)S(=O)(=O)Oc1ccc(Nc2cccc3c2C(=O)N(C2CCC(=O)NC2=O)C3=O)cc1 (stereo not shown) [FL4-21] | 1080 | –
15 | C[C@@H](O)CN(C)S(=O)(=O)Oc1ccc(C2CCC(=O)NC2=O)cc1 (stereo partly shown) [FL5-1] | 914 | –
16 | O=C1CCC(c2ccc(OS(=O)(=O)N3CC(CCO)C3)cc2)C(=O)N1 (stereo not shown) [FL5-2] | 1060 | –
17 | CC(C)(O)C1CCN(S(=O)(=O)Oc2ccc(C3CCC(=O)NC3=O)cc2)C1 (stereo not shown) [FL5-4] | 948 | –
18 | O=C1CCC(c2ccc(OS(=O)(=O)N3CCOCC3)cc2)C(=O)N1 (stereo not shown) [FL5-5] | 829 | –
19 | C[C@@H]1C[C@H](C)CN(S(=O)(=O)Oc2ccc(C3CCC(=O)NC3=O)cc2)C1 (stereo partly shown) [FL5-6] | 4690 | –
20 | CC1(C)CN(S(=O)(=O)Oc2ccc(C3CCC(=O)NC3=O)cc2)CCS1(=O)=O (stereo not shown) [FL5-7] | 864 | –
21 | CC1(C)CN(S(=O)(=O)Oc2ccc(C3CCC(=O)NC3=O)cc2)CC2(CCOC2)O1 (stereo not shown) [FL5-8] | 1340 | –
22 | O=C1CCC(c2ccc(OS(=O)(=O)N3CC4(CNC(=O)N4)C3)cc2)C(=O)N1 (stereo not shown) [FL5-9] | 1050 | –
23 | O=C1CCC(c2ccc(OS(=O)(=O)N3C[C@@H](F)[C@H](F)C3)cc2)C(=O)N1 (stereo partly shown) [FL5-10] | 893 | –
24 | CN(Cc1ncnn1C)S(=O)(=O)Oc1ccc(C2CCC(=O)NC2=O)cc1 (stereo not shown) [FL5-11] | 1270 | –
25 | O=C1CCC(c2ccc(OS(=O)(=O)N3CCC(c4ccco4)C3)cc2)C(=O)N1 (stereo not shown) [FL5-12] | 705 | –
26 | Cc1cn2c(n1)CN(S(=O)(=O)Oc1ccc(C3CCC(=O)NC3=O)cc1)CC2 (stereo not shown) [FL5-13] | 771 | –
27 | CN(Cc1ncc(C2CC2)o1)S(=O)(=O)Oc1ccc(C2CCC(=O)NC2=O)cc1 (stereo not shown) [FL5-14] | 600 | –
28 | CN(Cc1ccc2[nH]nnc2c1)S(=O)(=O)Oc1ccc(C2CCC(=O)NC2=O)cc1 (stereo not shown) [FL5-15] | 502 | –

Row | Structure (SMILES) | EC50 [1] [nM] | EC50 [nM]
29 | O=C1CCC(c2ccc(OS(=O)(=O)N3CCC(c4ccncc4)CC3)cc2)C(=O)N1 (stereo not shown) [FL5-16] | 4220 | –
30 | CC1c2cc(F)ccc2CCN1S(=O)(=O)Oc1ccc(C2CCC(=O)NC2=O)cc1 (stereo not shown) [FL5-17] | 908 | –
31 | CN(C)c1ncc(CN(C)S(=O)(=O)Oc2ccc(C3CCC(=O)NC3=O)cc2)cn1 (stereo not shown) [FL5-18] | 586 | –
32 | CC1c2cccn2CCN1S(=O)(=O)Oc1ccc(C2CCC(=O)NC2=O)cc1 (stereo not shown) [FL5-19] | 940 | –
33 | CN(Cc1ccc2c(c1)OCO2)S(=O)(=O)Oc1ccc(C2CCC(=O)NC2=O)cc1 (stereo not shown) [FL5-20] | 775 | –
34 | CN(C1CC1)S(=O)(=O)Oc1ccc(C2CCC(=O)NC2=O)cc1 (stereo not shown) [FL5-21] | 899 | –
35 | C[C@@H](O)CN(C)S(=O)(=O)Oc1cccc(C2CCC(=O)NC2=O)c1 (stereo partly shown) [FL6-1] | 584 | –
36 | O=C1CCC(c2cccc(OS(=O)(=O)N3CC(CCO)C3)c2)C(=O)N1 (stereo not shown) [FL6-2] | 1250 | –
37 | CC(C)(O)C1CCN(S(=O)(=O)Oc2cccc(C3CCC(=O)NC3=O)c2)C1 (stereo not shown) [FL6-4] | 1300 | –
38 | O=C1CCC(c2cccc(OS(=O)(=O)N3CCOCC3)c2)C(=O)N1 (stereo not shown) [FL6-5] | 679 | –
39 | C[C@@H]1C[C@H](C)CN(S(=O)(=O)Oc2cccc(C3CCC(=O)NC3=O)c2)C1 (stereo partly shown) [FL6-6] | 961 | –
40 | CC1(C)CN(S(=O)(=O)Oc2cccc(C3CCC(=O)NC3=O)c2)CCS1(=O)=O (stereo not shown) [FL6-7] | 743 | –
41 | CC1(C)CN(S(=O)(=O)Oc2cccc(C3CCC(=O)NC3=O)c2)CC2(CCOC2)O1 (stereo not shown) [FL6-8] | 1340 | –
42 | O=C1CCC(c2cccc(OS(=O)(=O)N3CC4(CNC(=O)N4)C3)c2)C(=O)N1 (stereo not shown) [FL6-9] | 713 | –
43 | O=C1CCC(c2cccc(OS(=O)(=O)N3C[C@@H](F)[C@H](F)C3)c2)C(=O)N1 (stereo partly shown) [FL6-10] | 1140 | –
44 | CN(Cc1ncnn1C)S(=O)(=O)Oc1cccc(C2CCC(=O)NC2=O)c1 (stereo not shown) [FL6-11] | 887 | –
45 | O=C1CCC(c2cccc(OS(=O)(=O)N3CCC(c4ccco4)C3)c2)C(=O)N1 (stereo not shown) [FL6-12] | 570 | –
46 | Cc1cn2c(n1)CN(S(=O)(=O)Oc1cccc(C3CCC(=O)NC3=O)c1)CC2 (stereo not shown) [FL6-13] | 1080 | –
47 | CN(Cc1ncc(C2CC2)o1)S(=O)(=O)Oc1cccc(C2CCC(=O)NC2=O)c1 (stereo not shown) [FL6-14] | 837 | –
48 | CN(Cc1ccc2[nH]nnc2c1)S(=O)(=O)Oc1cccc(C2CCC(=O)NC2=O)c1 (stereo not shown) [FL6-15] | 520 | –
49 | O=C1CCC(c2cccc(OS(=O)(=O)N3CCC(c4ccncc4)CC3)c2)C(=O)N1 (stereo not shown) [FL6-16] | 645 | –
50 | CC1c2cc(F)ccc2CCN1S(=O)(=O)Oc1cccc(C2CCC(=O)NC2=O)c1 (stereo not shown) [FL6-17] | 803 | –
51 | CN(C)c1ncc(CN(C)S(=O)(=O)Oc2cccc(C3CCC(=O)NC3=O)c2)cn1 (stereo not shown) [FL6-18] | 794 | –
52 | CC1c2cccn2CCN1S(=O)(=O)Oc1cccc(C2CCC(=O)NC2=O)c1 (stereo not shown) [FL6-19] | 874 | –
53 | CN(Cc1ccc2c(c1)OCO2)S(=O)(=O)Oc1cccc(C2CCC(=O)NC2=O)c1 (stereo not shown) [FL6-20] | 622 | –
54 | CN(C1CC1)S(=O)(=O)Oc1cccc(C2CCC(=O)NC2=O)c1 (stereo not shown) [FL6-21] | 1070 | –
55 | O=C1CCC(c2ccccc2OS(=O)(=O)F)C(=O)N1 (stereo not shown) [FL7] | – | 72400
